The test system of one assay is HCV replicon genotype 1a. Briefly: HCV replicon assay, genotype 1a (cell ELISA for replicon-encoded NS3/4A). The class given is cell-based, hepatitis C virus (HCV). How it is done: Measurement of inhibition by compounds was performed using the HCV replicon system. Several different replicons encoding different HCV genotypes or mutations were used. In addition, potency measurements were made using different formats of the replicon assay, including different ways of measurements and different plating formats. See Jan M. Vrolijk et al., A replicons-based bioassay for the measurement of interferons in patients with chronic hepatitis C, 110 J. V[…] 201 (2003); Steven S. Carroll et al., Inhibition of Hepatitis C Virus RNA Replication by 2′-Modified Nucleoside Analogs, 278(14) J. BIOLOGICAL CHEMISTRY 11979 (2003). However, the underlying principles are common to all of these determinations, and are outlined below.
(§1) Stable neomycin phosphotransferase encoding replicons-harboring cell lines were used, so all cell lines were maintained under G418 selection prior to the assay. Potency was determined using a cell ELISA assay with an antibody to the replicons encoded NS3/4a protease. See Caterina Trozzi et al., In Vitro Selection and Characterization of Hepatitis C Virus Serine Protease Variants Resistant to an Active-Site Peptide Inhibitor, 77(6) J. Virol. 3669 (2003). To initiate an assay, replicon cells were plated in the presence of a dilution series of test compound in the absence of G418. Typically, the assays were performed in a 96-well plate formate for manual operation, or a 384-well plate format for automated assay. Replicon cells and compound were incubated for 96 hours. At the end of the assay, cells were washed free of media and compound, and the cells were then lysed. RNA was quantified indirectly through detection of replicon-encoded NS3/4A protein levels, through an ELISA-based assay with an antibody specific for NS3/4A. IC50 determinations were calculated as a percentage of a DMSO control by fitting the data to a four-parameter fit function and the data obtained is provided in the table below.
(§2) Data for selected compounds of the present invention was obtained for genotypes 1a and 1b using this method and is provided in the table below: […]
A general note: In antiviral work, replicon cells carry a viral genome segment that copies itself.

The test system of another assay is HCV replicon genotype 1b. The assay can be described thus: HCV replicon assay, genotype 1b (cell ELISA for replicon-encoded NS3/4A). Type of assay: cell-based, hepatitis C virus (HCV). The method, then:
The HCV NS5B inhibitory activity of the present compounds may be tested using assays known in the art. The HCV NS5B polymerase inhibitors described herein have activities in a genotype 1b replicon assay as described in the Examples. The assay is performed by incubating a replicon harboring cell-line in the presence of inhibitor for a set period of time and measuring the effect of the inhibitor on HCV replicon replication either directly by quantifying replicon RNA level, or indirectly by measuring enzymatic activity of a co-encoded reporter enzyme such as luciferase or β-lactamase. By performing a series of such measurements at different inhibitor concentrations, the effective inhibitory concentration of the inhibitor (EC50 or EC90) is determined See Jan M. Vrolijk et al., A replicons-based bioassay for the measurement of interferons in patients with chronic hepatitis C, 110 J. VIROLOGICAL METHODS 201 (2003). Such assays may also be run in an automated format for high through-put screening. See Paul Zuck et al., A cell-based β-lactamase reporter gene assay for the identification of inhibitors of hepatitis C virus replication, 334 ANALYTICAL BIOCHEMISTRY 344 (2004).
Measurement of inhibition by compounds was performed using the HCV replicon system. Several different replicons encoding different HCV genotypes or mutations were used. In addition, potency measurements were made using different formats of the replicon assay, including different ways of measurements and different plating formats. See Jan M. Vrolijk et al., A replicons-based bioassay for the measurement of interferons in patients with chronic hepatitis C, 110 J. VIROLOGICAL METHODS 201 (2003); Steven S. Carroll et al., Inhibition of Hepatitis C Virus RNA Replication by 2′-Modified Nucleoside Analogs, 278(14) J. BIOLOGICAL CHEMISTRY 11979 (2003). However, the underlying principles are common to all of these determinations, and are outlined below.
as §1, §2

[1] abbreviates: Hepatitis C virus, 96 h, read-out: 1a IC50 (nM), genotype 1a replicon cells, 96 hours incubation, NS3/4A ELISA readout, % of DMSO control.
The mark [2] stands for this setting: Hepatitis C virus, 96 h, read-out: 1b IC50 (nM), genotype 1b replicon cells, 96 hours incubation, NS3/4A ELISA readout, % of DMSO control.

This note sets out measurements from patent US9493461B2, “Tetracyclic heterocycle compounds and methods of use thereof for the treatment of hepatitis C” (priority 2013, dated 2016).

Read-outs that look alike come from different tables or passages of the source.

Consider `CNC(=O)c1c(-c2ccc(F)cc2F)oc2cc(N(C)S(C)(=O)=O)c(-c3ccc4nc(CN5CCC(F)(F)C5)n5c6cccc(F)c6cc5c4n3)cc12` [Example 46], for which the IC50 in the assay on HCV replicon genotype 1a (setting [1]) worked out at 7.76 nM; with HCV replicon genotype 1b (setting [2]), 11.3 nM.
As for `CNC(=O)c1c(-c2ccc(F)cc2F)oc2cc(N(C)S(C)(=O)=O)c(-c3ccc4nc(CN5CCC(F)(F)CC5)n5c6cccc(F)c6cc5c4n3)cc12` [Example 47], the IC50 was 9.67 nM in the assay with HCV replicon genotype 1a (setting [1]) and 11.2 nM in the assay with HCV replicon genotype 1b (setting [2]).
For `CNC(=O)c1c(-c2ccc(F)cc2F)oc2cc(N(C)S(C)(=O)=O)c(-c3ccc4nc(CN5CC(F)(F)C5)n5c6cccc(F)c6cc5c4n3)cc12` [Example 48], the values for the IC50 in the assay on HCV replicon genotype 1a (setting [1]) and in the assay on HCV replicon genotype 1b (setting [2]) were 2.82 nM and 3.04 nM, respectively.
With `CCOP(=O)(Cc1nc2ccc(-c3cc4c(C(=O)NC)c(-c5ccc(F)cc5)oc4cc3N(C)S(C)(=O)=O)nc2c2cc3c(F)cccc3n12)OCC` [Example 49, diethyl ((11-fluoro-2-(2-(4-fluorophenyl)-3-(methylcarbamoyl)-6-(N-methylmethylsulfonamido)benzofuran-5-yl)pyrido[3′,2′:4,5]pyrimido[1,6-a]indol-6-yl)methyl)phosphonate], the figures for the IC50 with HCV replicon genotype 1a (setting [1]) and in the assay on HCV replicon genotype 1b (setting [2]) were 2.78 nM and 4.88 nM, respectively.
For `CNC(=O)c1c(C(=O)N2CC(F)C2)oc2cc(N(C)S(C)(=O)=O)c(-c3ccc4ncn5c6cccc(F)c6cc5c4n3)cc12` [Example 50, 2-(3-fluoroazetidine-1-carbonyl)-5-(11-fluoropyrido[3′,2′:4,5]pyrimido[1,6-a]indol-2-yl)-N-methyl-6-(N-methylmethylsulfonamido)benzofuran-3-carboxamide], the IC50 with HCV replicon genotype 1a (setting [1]) was 18.1 nM; with HCV replicon genotype 1b (setting [2]) it was 19.8 nM.
`CNC(=O)c1c(C(=O)N2CC(F)(F)C2)oc2cc(N(C)S(C)(=O)=O)c(-c3ccc4ncn5c6cccc(F)c6cc5c4n3)cc12` [Example 51]: the IC50 was found to be 39.1 nM with HCV replicon genotype 1a (setting [1]) and 32 nM with HCV replicon genotype 1b (setting [2]).
The corresponding values for `CNC(=O)c1c(C(=O)N2CCC2(C)C)oc2cc(N(C)S(C)(=O)=O)c(-c3ccc4ncn5c6cccc(F)c6cc5c4n3)cc12` [Example 52] are 260 nM and 120 nM.
As to `CCc1ncc(-c2oc3cc(N(C)S(C)(=O)=O)c(-c4ccc5ncn6c7cccc(F)c7cc6c5n4)cc3c2C(=O)NC)s1` [Example 53, 2-(2-ethylthiazol-5-yl)-5-(11-fluoropyrido[3′,2′:4,5]pyrimido[1,6-a]indol-2-yl)-N-methyl-6-(N-methylmethylsulfonamido)benzofuran-3-carboxamide], the IC50 stood at 7.79 nM with HCV replicon genotype 1a (setting [1]) and 6.37 nM with HCV replicon genotype 1b (setting [2]).
As for `CNC(=O)c1c(-c2ccc(F)cc2)oc2cc(N(C)S(C)(=O)=O)c(-c3ccc4nc(CCN5CC(F)C5)n5c6cccc(F)c6cc5c4n3)cc12` [Example 54, 5-(11-fluoro-6-(2-(3-fluoroazetidin-1-yl)ethyl)pyrido[3′,2′:4,5]pyrimido[1,6-a]indol-2-yl)-2-(4-fluorophenyl)-N-methyl-6-(N-methylmethylsulfonamido)benzofuran-3-carboxamide], the IC50 with HCV replicon genotype 1a (setting [1]) is 2.14 nM; with HCV replicon genotype 1b (setting [2]), 4.86 nM.
As to `CNC(=O)c1c(-c2ccc(F)cc2)oc2cc(N(C)S(C)(=O)=O)c(-c3ccc4ncn5c6cccc(F)c6cc5c4n3)cc12` [Example 55, 2-(4-fluorophenyl)-5-(11-fluoropyrido[3′,2′:4,5]pyrimido[1,6-a]indol-2-yl)-N-methyl-6-(N-methylmethylsulfonamido)benzofuran-3-carboxamide], the IC50 in the assay on HCV replicon genotype 1a (read-out: 1a IC50, genotype 1a replicon cells, 96 hours incubation, NS3/4A ELISA readout, % of DMSO control) was determined as 1.55 nM; in the assay on HCV replicon genotype 1b (read-out: 1b IC50, genotype 1b replicon cells, 96 hours incubation, NS3/4A ELISA readout, % of DMSO control), 2.01 nM.
For the molecule `CNC(=O)c1c(-c2ccc(F)cc2)oc2cc(N(C)S(C)(=O)=O)c(-c3ccc4c(n3)-c3cc5c(F)cccc5n3CN4)cc12` [Example 56, 5-(11-fluoro-5,6-dihydropyrido[3′,2′:4,5]pyrimido[1,6-a]indol-2-yl)-2-(4-fluorophenyl)-N-methyl-6-(N-methylmethylsulfonamido)benzofuran-3-carboxamide], the IC50 in the assay on HCV replicon genotype 1a (setting [1]) amounted to 5.26 nM; with HCV replicon genotype 1b (setting [2]), 5.32 nM.
The corresponding values for `CNC(=O)c1c(-c2ccc(F)cc2)oc2cc(N(C)S(C)(=O)=O)c(-c3cnc4c(c3)-c3cc5c(F)cccc5n3CN4)cc12` [Example 57] are 2.66 nM and 3.11 nM.
The corresponding values for `CNC(=O)c1c(-c2ccc(F)cc2F)oc2cc(N(C)S(C)(=O)=O)c(-c3ccc4c(n3)-c3cc5c(F)cccc5n3CN4)cc12` [Example 58] are 1.68 nM and 2.76 nM.
`CNC(=O)c1c(-c2ccc(F)cc2)oc2cc(N(C)S(C)(=O)=O)c(-c3cnc4ncn5c6cccc(F)c6cc5c4c3)cc12` [Example 59, 2-(4-fluorophenyl)-5-(11-fluoropyrido[2′,3′:4,5]pyrimido[1,6-a]indol-2-yl)-N-methyl-6-(N-methylmethylsulfonamido)benzofuran-3-carboxamide]: the IC50 with HCV replicon genotype 1a (setting [1]) stood at 2 nM; in the assay with HCV replicon genotype 1b (setting [2]), 2.16 nM.
`CNC(=O)c1c(-c2ccc(F)cc2)oc2cc(N(C)S(C)(=O)=O)c(-c3ccc4nc(C)n5c6cccc(F)c6cc5c4n3)cc12` [Example 60, 5-(11-fluoro-6-methylpyrido[3′,2′:4,5]pyrimido[1,6-a]indol-2-yl)-2-(4-fluorophenyl)-N-methyl-6-(N-methylmethylsulfonamido)benzofuran-3-carboxamide]: the IC50 in the assay with HCV replicon genotype 1a (setting [1]) came to 2.78 nM; in the assay with HCV replicon genotype 1b (setting [2]), 2.77 nM.
The matching figures for `CNC(=O)c1c(-c2ccc(F)cc2)oc2cc(N(C)S(C)(=O)=O)c(-c3ccc4c(n3)-c3cc5c(F)cccc5n3C(C)N4)cc12` (centres unmarked) [Example 61, 5-(11-fluoro-6-methyl-5,6-dihydropyrido[3′,2′:4,5]pyrimido[1,6-a]indol-2-yl)-2-(4-fluorophenyl)-N-methyl-6-(N-methylmethylsulfonamido)benzofuran-3-carboxamide]: 2.6 nM and 3.01 nM.
Take `CNC(=O)c1c(-c2ccc(F)cc2)oc2cc(N(C)S(C)(=O)=O)c(-c3ccc4nc(C(=O)OC)n5c6cccc(F)c6cc5c4n3)cc12` [Example 62, methyl 11-fluoro-2-(2-(4-fluorophenyl)-3-(methylcarbamoyl)-6-(N-methylmethylsulfonamido)benzofuran-5-yl)pyrido[3′,2′:4,5]pyrimido[1,6-a]indole-6-carboxylate]: the IC50 is 8.67 nM in the assay with HCV replicon genotype 1a (setting [1]) and 12.2 nM in the assay with HCV replicon genotype 1b (setting [2]).
For the molecule `CNC(=O)c1c(-c2ccc(F)cc2)oc2cc(N(C)S(C)(=O)=O)c(-c3ccc4nc(CC(=O)OC)n5c6cccc(F)c6cc5c4n3)cc12` [Example 63, methyl 2-(11-fluoro-2-(2-(4-fluorophenyl)-3-(methylcarbamoyl)-6-(N-methylmethylsulfonamido)benzofuran-5-yl)pyrido[3′,2′:4,5]pyrimido[1,6-a]indol-6-yl)acetate], the IC50 in the assay on HCV replicon genotype 1a (setting [1]) was determined as 1.55 nM; in the assay with HCV replicon genotype 1b (setting [2]), 2.76 nM.
Consider `CNC(=O)c1c(-c2ccc(F)cc2)oc2cc(N(C)S(C)(=O)=O)c(-c3ccc4c(n3)-c3cc5c(F)cccc5n3C(CO)N4)cc12` (centres unmarked) [Example 64, 5-(11-fluoro-6-(hydroxymethyl)-5,6-dihydropyrido[3′,2′:4,5]pyrimido[1,6-a]indol-2-yl)-2-(4-fluorophenyl)-N-methyl-6-(N-methylmethylsulfonamido)benzofuran-3-carboxamide], for which the IC50 with HCV replicon genotype 1a (setting [1]) and in the assay with HCV replicon genotype 1b (setting [2]) was 11.8 nM in each case.
